Data from patent US20240173319A1, “SOLID DOSE PHARMACEUTICAL COMPOSITION” (Sumitomo Pharma Oncology, Inc., priority 2019, published 2024).

Assays:
Assay type in all cases: physicochemical
[1] = Log D (pH 7.4) of the API
Protocol: The hydrochloride salt of the compound of formula (I) was formulated into three (3) oral dose strengths (5, 25, and 125 mg dose [based on free base]). The physicochemical properties of the compound of formula (I), the active pharmaceutical ingredient (API), are summarized in Table 1.

[2] = Solubility of the API in media
Protocol: The solubility of the API was tested. In all media, solubility of the compound is good, namely the maximum tested dose of 125 mg was found soluble in 250 mL of media. […] This characterization may not be accurate for larger doses. Reference is made to Table 2.

[3] = Excipient compatibility study, related substances (unknown RRT)
Protocol: An initial excipient compatibility study was performed.
In the compatibility study, all the samples were evaluated for two (2) primary properties: appearance and related substances.
(close) for 4W with respect to their related substance profile.

[4] = 40° C./75% RH, open glass vial, 4 week

logD [1]: 2.66 | Maximum dose mg solubility in 250 ml ([2]; 0.1N HCl): 256 mg | solubility ([2]; 0.1N HCl, pH 1.005, simulated gastric fluid): 1030 µg/mL | Maximum dose mg solubility in 250 ml ([2]; Water): 252 mg | Solubility characterization with reference to BCS classification ([2]; maximum tested dose of 125 mg in 250 mL of media): highly soluble | Maximum dose mg solubility in 250 ml ([2]; pH 4.5 Acetate buffer): 253 mg | solubility ([2]; pH 4.5 acetate buffer, pH 4.508, aqueous buffer): 1010 µg/mL | Maximum dose mg solubility in 250 ml ([2]; pH 6.8 Phosphate buffer): 245 mg | solubility ([2]; pH 6.8 phosphate buffer, pH 6.812, aqueous buffer): 980 µg/mL | solubility ([2]; water, pH 6.213, water): 1010 µg/mL | Total (related substances) [3, 4]: 0.84% | Unknown RRT 0.162 [3, 4]: 0.11% | Unknown RRT 0.866 [3, 4]: BQL | Unknown RRT 0.989 [3, 4]: BQL | Unknown RRT 1.046 [3, 4]: BQL | Unknown RRT 1.07 [3, 4]: 0.07% | Unknown RRT 1.08 [3, 4]: 0.05% | Unknown RRT 1.341 [3, 4]: 0.2% | Unknown RRT 1.38 [3, 4]: 0.1% | Unknown RRT 1.549 [3, 4]: 0.19% | Unknown RRT 1.633 [3, 4]: 0.12% | Total (related substances) ([3]; Initial): 0.93% | Unknown RRT 0.162 ([3]; Initial): 0.12% | Unknown RRT 0.989 ([3]; Initial): BQL | Unknown RRT 1.046 ([3]; Initial): BQL | Unknown RRT 1.07 ([3]; Initial): 0.07% | Unknown RRT 1.08 ([3]; Initial): 0.06% | Unknown RRT 1.341 ([3]; Initial): 0.27% | Unknown RRT 1.38 ([3]; Initial): 0.08% | Unknown RRT 1.549 ([3]; Initial): 0.21% | Unknown RRT 1.633 ([3]; Initial): 0.12%
SMILES: COc1cc(Nc2nccc(Nc3cccnc3-c3ccccn3)n2)ccc1N1CCN(C)CC1.Cl [API, N2-[3-methoxy-4-(4-methylpiperazin-1yl)phenyl]-N4-[2-(pyridin-2-yl)pyridin 3-yl] pyrimidine-2,4-diamine hydrochloride]
